{
  "source": "patent US20230000813A1",
  "about": "“COMPOUND FOR THE TREATMENT OF BOVINE OR SWINE RESPIRATORY DISEASE” (Intervet Inc., priority 2016, published 2023)",
  "key": {"[1]": {"test_system": "naturally occurring bovine respiratory disease (BRD)", "assay": "Treatment of naturally occurring bovine respiratory disease under U.S. feedlot conditions (Example 11)", "assay_type": "in vivo, weaned beef cattle calves", "source_text": "The effectiveness and safety of compound 329 for the treatment of naturally occurring bovine respiratory disease (BRD) under typical U.S. feedlot conditions when administered subcutaneously was investigated. The therapeutic efficacy of the two antibacterials was compared to a negative control group (sterile saline) and a positive control group (Nuflor® Injectable Solution).\nWeaned beef cattle calves (crossbreds of Angus, Charolais and Limousin) were enrolled in the study and were allocated to groups of 20 animals per treatment group. Calves were enrolled in the study with body weights that ranged from 123 to 262 kg.\nThe bovine respiratory disease observed in this 10-day natural infection study was moderate to severe across the treatment groups and typical of that observed in commercial feed yards in the U.S.\nAnimals were dosed subcutaneously once on the day of enrollment (Day 0) with compound 329 or the control groups. Compound 329 was dosed at 10 mg/kg body weight. Nuflor® was dosed at 40 mg/kg body weight. Sterile saline was dosed at 2 mL/15 kg body weight."}, "[2]": {"test_system": "M. haemolytica M7/2, serotype A:1, ID 6357", "assay": "Mannheimia haemolytica cattle lung infection model, efficacy (Example 8)", "assay_type": "in vivo, Holstein black pied cattle calves", "set-up": "key to General behavior, score: 0 = normal; 1 = slightly depressive; 2 = moderately depressive; 3 = highly depressive; 4 = recumbency; key to Re-isolation of bacteria, Left Bronchial swab / Re-isolation of bacteria, Right Bronchial swab: − no bacterial growth; + low; ++ medium; +++ high amount of bacterial growth", "details": "for Food consumption, cumulated for all animals in the group: 3 calves; for Lung score (including grade and percent Lung consolidation): grade of consolidation 0 to 3", "method": "15 male Holstein black pied cattle calves of ca. 4 months age were randomly assigned to the study groups ensuring an equal distribution of body weight. The animal weight was approximately 98-133.5 kg on D-1.\nCalves were infected on Day 0 via intratracheal instillation of approximately 300 mL of a M. haemolytica PBS suspension containing approximately 3×10^9 CFU M. haemolytica in late log phase.\nThree animals each were treated one hour after infection by subcutaneous (SC) administration of Compound 329 in an aqueous 30% (w/v) Captisol® solution for injection at a dose of 10 mg/kg BW.\nThe respective dose volume was injected on the sides of the thoracic wall. Injection volumes exceeding 10 mL were divided into one portion of 10 mL administered to the left side and the remaining rest administered at different injection sites on the other side. Animals in one control group were treated with a commercially available Enrofloxacin solution (Baytril ® 10%, Bayer Animal Health) at the recommended dose of 10 mg/kg BW. The second control group was treated with the galenic diluent (30% (w/v) Captisol®, dissolved in water) as placebo.\nFood consumption was measured. Single individual blood samples were collected from the 12 animals at the following time points: D-1 (predose), 30 minutes, 2, 4, 6, 24 h and at D2 (ca. 45 h) after administration. After the day 2 blood sampling, the infected cattle were slaughtered. The lungs were weighted. Lung states and lung scores were observed morphologically.\nAt necropsy from animals treated with test items or the positive control, samples of epithelial lining fluid (ELF), lung tissue, and additionally tissue of liver and kidney were collected. From each lung two bacteriological swaps were taken from the left and right bronchus.\nFrom each lung two tissue samples were collected by clipping from at least two locations, one from morphologically unchanged tissue, one from the edge of pathomorphologically changed areas."}, "[3]": {"test_system": "15 isolates of H. parasuis", "assay": "MIC50/MIC90, agar-dilution method (GC agar base)", "assay_type": "cell-based", "details": "Haemophilus parasuis", "method": "The in vitro activity of 3 representative compounds of this invention against 15 isolates of H. parasuis was determined. All strains were isolated from the respiratory tract of swine in different European countries The MICs for all isolates were determined by using the agar-dilution method according to CLSI document VET01-A4 [1]with the following modification: GC agar base was used instead of Mueller-Hinton agar base for the preparation of the agar-dilution plates. Results were interpreted according to the CLSI document VET01-S3."}, "[4]": {"details": "D 0 to D 10, 20 calves per group, C. 329 10 mg/kg, Nuflor 40 mg/kg SC once"}, "[5]": {"details": "natural BRD, 20 calves per group, SC once on Day 0: C. 329 10 mg/kg, Nuflor 40 mg/kg"}, "[6]": {"details": "natural BRD, calves removed before D 10 included, C. 329 10 mg/kg, Nuflor 40 mg/kg SC once"}, "[7]": {"details": "infected calves, SC 10 mg/kg, in words"}, "[8]": {"details": "section on day 2, infected calves, SC 10 mg/kg, individual animals and mean, 10 mg/kg"}, "[9]": {"details": "section on day 2, infected calves, SC 10 mg/kg, individual animals and mean, 10 mg/kg, mean"}, "[10]": {"details": "section on day 2, infected calves, SC single 10 mg/kg, individual animals"}},
  "note": "Several values for one entry are separate records, joined by “and”; a condition that tells them apart may be missing. Equal values may be shown once. Marks after values point to notes of the source that are not given here.",
  "data": [
    {"smiles": "CC(C)(N)C(NC(=O)c1ccc(C#Cc2ccc(CNC3CC3)cc2)cc1)C(=O)NO", "note": "(stereo not drawn) [C. 329]", "values": [
      {"measurement": "Efficacy in a field like setting, naturally occurring BRD", "setting": "[1]; 10 mg/kg SC once, compared to saline and Nuflor, conclusion in words", "value": "demonstrated"},
      {"measurement": "Mortalities during the study", "setting": "[1]; 10-day natural BRD study, C. 329 10 mg/kg, Nuflor 40 mg/kg SC once", "value": 5, "unit": "%"},
      {"measurement": "Removals from the study, Percentage", "setting": "[1]; [4]", "value": 5, "unit": "%"},
      {"measurement": "Removals from the study, Total", "setting": "[1]; [4]", "value": 1},
      {"measurement": "Removals from the study, D 0", "setting": "[1]; [5]", "value": 0},
      {"measurement": "Removals from the study, D 1", "setting": "[1]; [5]", "value": 0},
      {"measurement": "Removals from the study, D 2", "setting": "[1]; [5]", "value": 0},
      {"measurement": "Removals from the study, D 3", "setting": "[1]; [5]", "value": 0},
      {"measurement": "Removals from the study, D 4", "setting": "[1]; [5]", "value": 0},
      {"measurement": "Removals from the study, D 5", "setting": "[1]; [5]", "value": 0},
      {"measurement": "Removals from the study, D 6", "setting": "[1]; [5]", "value": 0},
      {"measurement": "Removals from the study, D 7", "setting": "[1]; [5]", "value": 0},
      {"measurement": "Removals from the study, D 8", "setting": "[1]; [5]", "value": 0},
      {"measurement": "Removals from the study, D 9", "setting": "[1]; [5]", "value": 1},
      {"measurement": "Removals from the study, D 10", "setting": "[1]; [5]", "value": 0},
      {"measurement": "Average Body weight on D 0", "setting": "[1]; natural BRD, day of enrollment, C. 329 10 mg/kg, Nuflor 40 mg/kg SC once", "value": 401.2, "unit": "lb"},
      {"measurement": "Average Body weight on last day in study", "setting": "[1]; [6]", "value": 406.3, "unit": "lb"},
      {"measurement": "Average daily body weight gain", "setting": "[1]; [6]", "value": 0.5, "unit": "lb"},
      {"measurement": "daily body weight gains over the study period", "setting": "[1]; natural BRD, in words", "value": "positive daily body weight gains"},
      {"measurement": "General behavior, score", "setting": "[2]; D 0 am (before infection), calves, SC 10 mg/kg, individual animals and mean, 10 mg/kg", "value": 0},
      {"measurement": "General behavior, score", "setting": "[2]; D 0 am (before infection), calves, SC 10 mg/kg, individual animals and mean, 10 mg/kg, mean", "value": 0.0, "unit": "score"},
      {"measurement": "Food consumption, cumulated for all animals in the group", "setting": "[2]; D 0 am, after infection and treatment, SC 10 mg/kg", "value": 470, "unit": "g"},
      {"measurement": "Food consumption, cumulated for all animals in the group", "setting": "[2]; D 0 pm, SC 10 mg/kg", "value": "1800** g"},
      {"measurement": "General behavior, score", "setting": "[2]; D 0 pm, calves infected with M. haemolytica, SC 10 mg/kg 1 h after infection, individual animals and mean, 10 mg/kg", "value": "2 and 1 (2×)"},
      {"measurement": "General behavior, score", "setting": "[2]; D 0 pm, calves infected with M. haemolytica, SC 10 mg/kg 1 h after infection, individual animals and mean, 10 mg/kg, mean", "value": 1.3, "unit": "score"},
      {"measurement": "General behavior, score", "setting": "[2]; D 1 am, calves infected with M. haemolytica, SC 10 mg/kg 1 h after infection, individual animals and mean, 10 mg/kg", "value": "1 and 0 (2×)"},
      {"measurement": "General behavior, score", "setting": "[2]; D 1 am, calves infected with M. haemolytica, SC 10 mg/kg 1 h after infection, individual animals and mean, 10 mg/kg, mean", "value": 0.3, "unit": "score"},
      {"measurement": "General behavior, score", "setting": "[2]; D 1 pm, calves infected with M. haemolytica, SC 10 mg/kg 1 h after infection, individual animals and mean, 10 mg/kg", "value": "1 (2×) and 0"},
      {"measurement": "General behavior, score", "setting": "[2]; D 1 pm, calves infected with M. haemolytica, SC 10 mg/kg 1 h after infection, individual animals and mean, 10 mg/kg, mean", "value": 0.7, "unit": "score"},
      {"measurement": "General behavior, score", "setting": "[2]; D 2 am, calves infected with M. haemolytica, SC 10 mg/kg 1 h after infection, individual animals and mean, 10 mg/kg", "value": 0},
      {"measurement": "General behavior, score", "setting": "[2]; D 2 am, calves infected with M. haemolytica, SC 10 mg/kg 1 h after infection, individual animals and mean, 10 mg/kg, mean", "value": 0.0, "unit": "score"},
      {"measurement": "Food consumption, cumulated for all animals in the group", "setting": "[2]; D +1 am, SC 10 mg/kg", "value": 4800, "unit": "g"},
      {"measurement": "Food consumption, cumulated for all animals in the group", "setting": "[2]; D +1 pm, SC 10 mg/kg", "value": 4800, "unit": "g"},
      {"measurement": "Food consumption, cumulated for all animals in the group", "setting": "[2]; D −1 (before infection), SC 10 mg/kg", "value": 4800, "unit": "g"},
      {"measurement": "general behavior and food uptake", "setting": "[2]; [7]", "value": "comparable to the positive control"},
      {"measurement": "mean bacterial re-isolation", "setting": "[2]; [7]", "value": "Very low"},
      {"measurement": "Lung score (including grade and percent Lung consolidation)", "setting": "[2]; [8]", "value": "32.4 and 29.5 and 37.7"},
      {"measurement": "Lung score (including grade and percent Lung consolidation)", "setting": "[2]; [9]", "value": 33.2},
      {"measurement": "Lung consolidations", "setting": "[2]; [8]", "value": "20.9% and 14.8% and 21.6%"},
      {"measurement": "Lung weight", "setting": "[2]; [8]", "value": "1717 g and 1549 g and 1583 g"},
      {"measurement": "Lung/body weight ratio", "setting": "[2]; [8]", "value": "~1.3% and 1.36% and 1.30% and 1.41%"},
      {"measurement": "Lung consolidations", "setting": "[2]; [9]", "value": 19.1, "unit": "%"},
      {"measurement": "Lung weight", "setting": "[2]; [9]", "value": 1616, "unit": "g"},
      {"measurement": "Re-isolation of bacteria, Left Bronchial swab", "setting": "[2]; [10]", "value": "−"},
      {"measurement": "Re-isolation of bacteria, Right Bronchial swab", "setting": "[2]; [10]", "value": "−"},
      {"measurement": "efficacy in the lung model infection with M. haemolytica in calves", "setting": "[2]; single SC treatment with 10 mg/kg BW, conclusion in words", "value": "good efficacy"},
      {"measurement": "MIC50", "setting": "[3]", "value": 2, "unit": "mg/L"},
      {"measurement": "MIC90", "setting": "[3]", "value": 4, "unit": "mg/L"}
    ]}
  ]
}
